Laboratory results reported in patent US12421217B2, “Pyrazine derivative or salt thereof, and use of same” (FUJIFILM Corporation, priority 2019, dated 2025).
pIC50: −log10 of the molar value.

Experiments:
[1] = test system: human myeloid leukemia cell line HL60; assay: Cell growth test (Cell Titer Glo); assay type: cell-based; conditions: HL-60, 72 h, HL60 cells, 3 days, read-out: Cell growth inhibitory effect (GI50)
Experimental: The cell growth test was carried out using the human myeloid leukemia cell line HL60 (available from ATCC, CRL-240). As a culture medium of HL60 cells, RPMI 1640 (available from FUJIFILM Wako Pure Chemical Corporation, 189-02025) supplemented with 10% fetal bovine serum (available from Thermo Fisher Scientific, Inc., 10437-028), and 1% penicillin-streptomycin (10,000 U/mL, available from Thermo Fisher Scientific, Inc., 15140-122) was used. HL60 cells were seeded on a 384-well plate (available from Corning Inc., 4588) at a cell density of 1×10^3 cells/20 μL/well. After culturing overnight, 5 μL of the test compound having a predetermined concentration was added, and 3 days later, 25 μL of Cell Titer Glo (registered trademark) Luminescent Cell Viability Assay (available from Promega Corporation, G7573) was added, and then the amount of luminescence was measured using an EnVision plate reader (available from PerkinElmer, Inc.). Since the amount of luminescence is proportional to the intracellular concentration of adenosine triphosphate (ATP), the amount of luminescence was used as an indicator of the number of viable cells. The growth inhibitory concentration for each test compound concentration was calculated by the following expression.
(§1) The growth inhibition rate at each test compound concentration was determined, and the 50% growth inhibitory concentration [GI50 (nmol/L)] was calculated using XLfit. Growth inhibition rate (%)=(amount of luminescence in test compound-added well)/(amount of luminescence in DMSO-added well)×100
The abbreviations in the table have the following meanings. • A: GI50 value<100 nmol/L • B: 100 nmol/L≤GI50 value<1,000 nmol/L • C: 1,000 nmol/L≤GI50 value

[2] = target: T1, recombinant human DHODH (Homo sapiens, UniProt Q02127); assay: Enzyme reaction inhibition test (DHODH enzyme assay, DCIP quenching); assay type: biochemical; conditions: DCIP absorbance 600 nm, 50 minutes, read-out: Enzyme reaction inhibitory effect (IC50)
T1 construct: DHODH, 31-395 aa, Human, His tag, E. coli, ATGP1615; His tag; purchased ATGen Co. Ltd. ATGP1615; host or cells: E. coli
Experimental: The DHODH enzyme assay was carried out with reference to “Benjamin Bader, Wolfgang Knecht, Markus Fries, and Monika Loffler. Expression, Purification, and Characterization of Histidine-Tagged Rat and Human Flavoenzyme Dihydroorotate Dehydrogenase. Protein Expression and Purification, 1998, 13, 414-422.”
The DHODH activity was evaluated using an enzyme assay system that is coupled with an assay in which a blue coloring agent 2,6-dichlorophenol indophenol (DCIP, available from MP Biomedicals, LLC, MP150118) is quenched. Purified recombinant human DHODH (DHODH, 31-395 aa, Human, His tag, E. coli, ATGP1615) was purchased from ATGen Co. Ltd. The enzyme assay was carried out in a 384-well plate using a buffer solution containing 100 mmol/L Hepes (available from Dojindo Laboratories, 342-01375), 400 mmol/L NaCl (available from FUJIFILM Wako Pure Chemical Corporation, 191-01665), 10% Glycerol (available from FUJIFILM Wako Pure Chemical Corporation, 075-00616), 0.05% Triton X-100 (available from Sigma-Aldrich Co., LLC, T8787-100ML), 0.2 mmol/L Ubiquinone-10 (available from FUJIFILM Wako Pure Chemical Corporation, 216-00761), 0.1 mmol/L DHO (L-dihydroorotic acid, available from Sigma-Aldrich Co., LLC, D7128), 0.5% DMSO (dimethylsulfoxide, available from FUJIFILM Wako Pure Chemical Corporation, 047-29353), 0.175 μg/mL DHODH, and 0.12 mmol/L DCIP and having a pH adjusted to 8.0 by adding 5 mol/L potassium hydroxide (available from FUJIFILM Wako Pure Chemical Corporation, 168-21815). A test compound with a predetermined concentration was added using Biomek NX (available from Beckman Coulter Inc.), and the enzymatic reaction was started by adding the substrate. The enzyme activity was assessed by measuring the decrease in DCIP absorbance (600 nm) for 50 minutes using an EnVision plate-reading spectrophotometer (available from PerkinElmer, Inc.).
as §1, with “enzyme reaction” for “growth”, “enzyme reaction inhibition” for “growth inhibitory”, “[IC50” for “[GI50”, “Enzyme reaction” for “Growth”
The abbreviations in the table have the following meanings. • A: IC50 value<10 nmol/L • B: 10 nmol/L≤IC50 value<100 nmol/L • C: 100 nmol/L≤IC50 value

T1 sequence (Q02127 31-395): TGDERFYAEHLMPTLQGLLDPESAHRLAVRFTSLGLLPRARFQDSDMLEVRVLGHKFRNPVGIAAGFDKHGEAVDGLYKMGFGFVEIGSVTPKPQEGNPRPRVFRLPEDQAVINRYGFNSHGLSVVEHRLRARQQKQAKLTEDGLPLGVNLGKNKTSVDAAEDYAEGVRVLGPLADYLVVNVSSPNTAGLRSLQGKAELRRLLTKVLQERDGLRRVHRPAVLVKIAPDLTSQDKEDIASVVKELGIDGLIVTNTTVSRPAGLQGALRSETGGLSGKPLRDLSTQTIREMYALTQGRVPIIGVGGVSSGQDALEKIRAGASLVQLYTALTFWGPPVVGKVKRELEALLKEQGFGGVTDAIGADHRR

Row | GI50 [1] [nM] | pIC50 [2] | Structure (SMILES)
1 | < 100 | > 8.00 | O=C(O)c1nc(C2CC2)cnc1Nc1cccc(C2=CCOCC2)c1OCCC(F)(F)F [Example 19-8]
2 | ≥ 1000 | 7.00 to 8.00 | COc1c(Nc2ncc(C3CC3)nc2C(=O)O)cccc1C1=CCOCC1 [Example 19-20]
3 | < 100 | > 8.00 | O=C(O)c1nc(C2CC2)cnc1Nc1cccc(C2CCOCC2)c1CCC(F)(F)F [Example 19-15]
4 | 100 to 1000 | 7.00 to 8.00 | CCc1cnc(Nc2cccc(C3=CCOCC3)c2OCC(F)(F)F)c(C(=O)O)n1 [Example 19-32]
5 | ≥ 1000 | 7.00 to 8.00 | O=C(O)c1nc(C2CC2)cnc1Nc1cccc(C2=CCOCC2)c1F [Example 19-22]
6 | 100 to 1000 | 7.00 to 8.00 | CCOc1c(Nc2ncc(C3CC3)nc2C(=O)O)cccc1C1=CCOCC1 [Example 19-21]
7 | < 100 | > 8.00 | O=C(O)c1nc(C2CC2)cnc1Nc1cc(F)cc(C2CCOCC2)c1OCC(F)(F)F [Example 6, 6-cyclopropyl-3-((5-fluoro-3-(tetrahydro-2H-pyran-4-yl)-2-(2,2,2-trifluoroethoxy)phenyl)amino) pyrazine-2-carboxylic acid]
8 | 100 to 1000 | 7.00 to 8.00 | O=C(O)c1nc(C2CC2)cnc1Nc1cccc(C2CCOCC2)c1CC(F)(F)F [Example 19-18]
9 | 100 to 1000 | 7.00 to 8.00 | O=C(O)c1nc(C2CC2)cnc1Nc1cccc(C2=CCOCC2)c1COCC(F)(F)F [Example 19-10]
10 | < 100 | > 8.00 | O=C(O)c1nc(C2CC2)cnc1Nc1cc(F)cc(C2=CCOCC2)c1OCC(F)(F)F [Example 5, 6-cyclopropyl-3-((3-(3,6-dihydro-2H-pyran-4-yl)-5-fluoro-2-(2,2,2-trifluoroethoxy)phenyl)amino) pyrazine-2-carboxylic acid]
11 | ≥ 1000 | 7.00 to 8.00 | O=C(O)c1nc(C2CC2)cnc1Nc1cccc(C2CCOCC2)c1CCF [Example 19-19]
12 | 100 to 1000 | > 8.00 | O=C(O)c1nc(C2CC2)cnc1Nc1cccc(C2CCOCC2)c1C1CC1 [Example 19-12]
13 | 100 to 1000 | > 8.00 | CC(C)c1c(Nc2ncc(C3CC3)nc2C(=O)O)cccc1C1CCOCC1 [Example 19-13]
14 | 100 to 1000 | 7.00 to 8.00 | CCOc1ccc(Nc2ncc(C3CC3)nc2C(=O)O)cc1C1=CCOCC1 [Example 19-24]
15 | ≥ 1000 | 7.00 to 8.00 | Cc1cnc(Nc2cccc(C3=CCOCC3)c2OCC(F)(F)F)c(C(=O)O)n1 [Example 19-33]
16 | 100 to 1000 | > 8.00 | CCCCc1c(Nc2ncc(C3CC3)nc2C(=O)O)cccc1C1CCOCC1 [Example 19-17]
17 | 100 to 1000 | 7.00 to 8.00 | CCOc1c(Nc2ncc(C3CC3)nc2C(=O)O)cc(F)cc1C1=CCOCC1 [Example 19-5]
18 | 100 to 1000 | 7.00 to 8.00 | CCOc1ccc(Nc2ncc(C3CC3)nc2C(=O)O)c(OCC)c1C1=CCOCC1 [Example 19-23]
19 | 100 to 1000 | 7.00 to 8.00 | CCCc1c(Nc2ncc(C3CC3)nc2C(=O)O)cccc1C1=CCOCC1 [Example 19-16]

Row | GI50 [1] [nM] | pIC50 [2] | Structure (SMILES)
20 | 100 to 1000 | > 8.00 | O=C(O)c1nc(C2CC2)cnc1Nc1cccc(C2=CCOCC2)c1OCC(F)F [Example 19-3]
21 | 100 to 1000 | 7.00 to 8.00 | Cc1c(Nc2ncc(C3CC3)nc2C(=O)O)cc(F)cc1C1=CCOCC1 [Example 19-4]
22 | < 100 | > 8.00 | CCc1c(Nc2ncc(C3CC3)nc2C(=O)O)cccc1C1CCOCC1 [Example 12, 6-cyclopropyl-3-((2-ethyl-3-(tetrahydro-2H-pyran-4-yl)phenyl)amino)pyrazine-2-carboxylic acid]
23 | 100 to 1000 | 7.00 to 8.00 | O=C(O)c1nc(C2CC2)cnc1Nc1cccc(C2=CCOCC2)c1CCCF [Example 19-27]
24 | < 100 | 7.00 to 8.00 | O=C(O)c1nc(C2CC2)cnc1Nc1cccc(C2CCOCC2)c1CC(F)F [Example 19-29]
25 | ≥ 1000 | ≤ 7.00 | CC(C)OC(=O)c1nc(C2CC2)cnc1Nc1cccc(C2=CCOCC2)c1OCC(F)(F)F [Example 21, isopropyl 6-cyclopropyl-3-((3-(3,6-dihydro-2H-pyran-4-yl)-2-(2,2,2-trifluoroethoxy)phenyl)amino)pyrazine-2-carboxylate]
26 | < 100 | > 8.00 | CC1=C(c2cccc(Nc3ncc(C4CC4)nc3C(=O)O)c2OCC(F)(F)F)CCOC1 [Example 19-14]
27 | 100 to 1000 | ≤ 7.00 | COC(=O)c1nc(C2CC2)cnc1Nc1cccc(C2=CCOCC2)c1OCC(F)(F)F [Example 1, methyl 6-cyclopropyl-3-((3-(3,6-dihydro-2H-pyran-4-yl)-2-(2,2,2-trifluoroethoxy)phenyl)amino)pyrazine-2-carboxylate]
28 | < 100 | > 8.00 | O=C(O)c1nc(C2CC2)cnc1Nc1cccc(C2CCOCC2)c1CCC(F)F [Example 19-28]
29 | 100 to 1000 | ≤ 7.00 | CCOC(=O)c1nc(C2CC2)cnc1Nc1cccc(C2=CCOCC2)c1OCC(F)(F)F [Example 20, ethyl 6-cyclopropyl-3-((3-(3,6-dihydro-2H-pyran-4-yl)-2-(2,2,2-trifluoroethoxy)phenyl)amino)pyrazine-2-carboxylate]
30 | 100 to 1000 | > 8.00 | O=C(O)c1nc(C2CC2)cnc1Nc1cc(F)cc(C2=CCOCC2)c1OC(F)F [Example 19-1]
31 | 100 to 1000 | 7.00 to 8.00 | CCOc1c(C2=CCOCC2)cc(F)c(F)c1Nc1ncc(C2CC2)nc1C(=O)O [Example 19-2]
32 | 100 to 1000 | 7.00 to 8.00 | CC(Oc1c(Nc2ncc(C3CC3)nc2C(=O)O)cccc1C1=CCOCC1)C(F)(F)F (stereo not shown) [Example 19-6]
33 | 100 to 1000 | 7.00 to 8.00 | CC(C)c1cnc(Nc2cccc(C3=CCOCC3)c2OCC(F)(F)F)c(C(=O)O)n1 [Example 19-31]
34 | ≥ 1000 | 7.00 to 8.00 | O=C(O)c1nc(C2CC2)cnc1Nc1ccc(F)c(C2=CCOCC2)c1F [Example 19-26]
35 | 100 to 1000 | > 8.00 | CCOc1c(Nc2ncc(C3CC3)nc2C(=O)O)ccc(F)c1C1=CCOCC1 [Example 19-25]
36 | < 100 | > 8.00 | O=C(O)c1nc(C2CC2)cnc1Nc1cc(F)cc(C2CCOCC2)c1OC(F)F [Example 11, 6-cyclopropyl-3-((2-(difluoromethoxy)-5-fluoro-3-(tetrahydro-2H-pyran-4-yl)phenyl)amino)pyrazine-2-carboxylic acid]
37 | 100 to 1000 | > 8.00 | O=C(O)c1nc(C2CC2)cnc1Nc1cccc(C2=CCOCC2)c1OC(F)F [Example 14, 6-cyclopropyl-3-((2-(difluoromethoxy)-3-(3,6-dihydro-2H-pyran-4-yl)phenyl)amino)pyrazine-2-carboxylic acid]
38 | < 100 | > 8.00 | O=C(O)c1nc(C2CC2)cnc1Nc1cccc(C2=CCOCC2)c1OCC(F)(F)C(F)(F)F [Example 19-7]
